Experimental data: US20260262643A1, “HERBICIDAL BENZOXAZINES” (FMC CORPORATION, priority 2022, published 2026)

Tests used:
[1] = tested on: wheat; experiment: Test C preemergence; assay type: in vivo, Triticum aestivum; conditions: 0 to 100 scale (0 no effect, 100 complete control); for Wheat plant response rating: preemergence
Outline: (§1)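 Soil-applied (pre) and foliar (post, 1–2 leaf, 2–10 cm) sprays; surfactant-containing non-phytotoxic solvent vehicle; loam/sand substrate. Readout: visual % control at 10 d, greenhouse, versus untreated.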

[2] = tested on: kochia; experiment: Test C postemergence; assay type: in vivo, Bassia scoparia; conditions: 10 days
Outline: as §1

[3] = tested on: corn; experiment: Test C preemergence; assay type: in vivo, Zea mays; conditions: 0 to 100 scale (0 no effect, 100 complete control); for Corn plant response rating: preemergence
Outline: as §1

[4] = tested on: green foxtail; experiment: Test C preemergence; assay type: in vivo, Setaria viridis; conditions: 0 to 100 scale (0 no effect, 100 complete control); for Foxtail, Green plant response rating: preemergence
Outline: as §1

[5] = tested on: barnyardgrass; experiment: Test C postemergence; assay type: in vivo, Echinochloa crusgalli; conditions: 10 days
Outline: as §1

[6] = tested on: oat, wild; experiment: Test C preemergence; assay type: in vivo, Avena fatua; conditions: 0 to 100 scale (0 no effect, 100 complete control); for Oat, Wild plant response rating: preemergence
Outline: as §1

[7] = tested on: pigweed, palmer; experiment: Test C preemergence; assay type: in vivo, Amaranthus palmeri; conditions: 0 to 100 scale (0 no effect, 100 complete control); for Pigweed, Palmer plant response rating: preemergence
Outline: as §1

[8] = tested on: green foxtail; experiment: Test C postemergence; assay type: in vivo, Setaria viridis; conditions: 10 days
Outline: as §1

[9] = tested on: blackgrass; experiment: Test C postemergence; assay type: in vivo, Alopecurus myosuroides; conditions: 10 days
Outline: as §1

[10] = tested on: pigweed, palmer; experiment: Test C postemergence; assay type: in vivo, Amaranthus palmeri; conditions: 10 days
Outline: as §1

[11] = tested on: horseweed; experiment: Test C postemergence; assay type: in vivo, Erigeron canadensis; conditions: 10 days
Outline: as §1

[12] = tested on: oat, wild; experiment: Test C postemergence; assay type: in vivo, Avena fatua; conditions: 10 days
Outline: as §1

[13] = tested on: sedge, umbrella; experiment: Test D flooded paddy test; assay type: in vivo, Cyperus difformis; conditions: 250 g ai/ha, applied to paddy water, visual rating after 13 to 14 days, scale 0 to 100 (0 no effect, 100 complete control)
Outline: (§2)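 Plants at the 2-leaf stage were grown in pots flooded to 3 cm, and compound was applied directly into the paddy water, with depth kept throughout. After 13–14 days in a greenhouse, injury was rated visually against untreated controls on a 0–100 scale (100 = complete control); a dash means not tested.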

[14] = tested on: soybean; experiment: Test C preemergence; assay type: in vivo, Glycine max; conditions: 0 to 100 scale (0 no effect, 100 complete control); for Soybean plant response rating: preemergence
Outline: as §1

[15] = tested on: ducksalad; experiment: Test D flooded paddy test; assay type: in vivo, Heteranthera limosa; conditions: 250 g ai/ha, applied to paddy water, visual rating after 13 to 14 days, scale 0 to 100 (0 no effect, 100 complete control)
Outline: as §2

[16] = tested on: rice; experiment: Test D flooded paddy test; assay type: in vivo, Oryza sativa; conditions: 250 g ai/ha, applied to paddy water, visual rating after 13 to 14 days, scale 0 to 100 (0 no effect, 100 complete control)
Outline: as §2

[17] = tested on: galium; experiment: Test C postemergence; assay type: in vivo, Galium aparine; conditions: 10 days
Outline: as §1

[18] = tested on: barnyardgrass; experiment: Test D flooded paddy test; assay type: in vivo, Echinochloa crus-galli; conditions: 250 g ai/ha, applied to paddy water, visual rating after 13 to 14 days, scale 0 to 100 (0 no effect, 100 complete control)
Outline: as §2

[19] = tested on: corn; experiment: Test C postemergence; assay type: in vivo, Zea mays; conditions: 10 days
Outline: as §1

[20] = tested on: ragweed; experiment: Test C postemergence; assay type: in vivo, Ambrosia artemisiifolia; conditions: 10 days
Outline: as §1

[21] = tested on: blackgrass; experiment: Test C preemergence; assay type: in vivo, Alopecurus myosuroides; conditions: 0 to 100 scale (0 no effect, 100 complete control); for Plant response rating, Blackgrass: Preemergence, 500 g ai/ha, visual rating after 10 days; for Blackgrass plant response rating: Test C, preemergence, 125 g ai/ha
Outline: as §1

[22] = tested on: soybean; experiment: Test C postemergence; assay type: in vivo, Glycine max; conditions: 10 days
Outline: as §1

[23] = tested on: kochia; experiment: Test C preemergence; assay type: in vivo, Bassia scoparia; conditions: 0 to 100 scale (0 no effect, 100 complete control); for Kochia plant response rating: preemergence
Outline: as §1

[24] = tested on: wheat; experiment: Test C postemergence; assay type: in vivo, Triticum aestivum; conditions: 10 days
Outline: as §1

[25] = tested on: ryegrass, Italian; experiment: Test C preemergence; assay type: in vivo, Lolium multiflorum; conditions: 0 to 100 scale (0 no effect, 100 complete control); for Ryegrass, Italian plant response rating: preemergence
Outline: as §1

[26] = tested on: ryegrass, Italian; experiment: Test C postemergence; assay type: in vivo, Lolium multiflorum; conditions: 10 days
Outline: as §1

[27] = tested on: ragweed; experiment: Test C preemergence; assay type: in vivo, Ambrosia artemisiifolia; conditions: 0 to 100 scale (0 no effect, 100 complete control); for Ragweed plant response rating: preemergence
Outline: as §1

[28] = tested on: barnyardgrass; experiment: Test C preemergence; assay type: in vivo, Echinochloa crusgalli; conditions: 0 to 100 scale (0 no effect, 100 complete control); for Plant response rating, Barnyardgrass: Preemergence, 500 g ai/ha, visual rating after 10 days; for Barnyardgrass plant response rating: Test C, preemergence, 125 g ai/ha
Outline: as §1

[29] = 125 g ai/ha, postemergence, 0 to 100 scale, 0 no effect, 100 complete control
[30] = Postemergence, 500 g ai/ha, visual 0 to 100 scale (0 no effect, 100 complete control)
[31] = Preemergence, 500 g ai/ha, visual rating after 10 days

## Cc1ccc(-n2cnc(C3(C)COC3)n2)cc1C(=O)N1C[C@H](C)Oc2c(Cl)cccc21 [Compound 275]
[1]; 500 g ai/ha
  Wheat plant response rating: 70
[1]; Test C, 125 g ai/ha
  Wheat plant response rating: 30
[2]; [29]
  Plant response rating, Kochia: 80
[3]; 500 g ai/ha
  Corn plant response rating: 60
[3]; Test C, 125 g ai/ha
  Corn plant response rating: 30
[4]; 500 g ai/ha
  Foxtail, Green plant response rating: 100
[4]; Test C, 125 g ai/ha
  Foxtail, Green plant response rating: 100
[5]; [29]
  Plant response rating, Barnyardgrass: 50
[5]; [30]
  Plant response rating, Barnyardgrass: 90
[6]; 500 g ai/ha
  Oat, Wild plant response rating: 90
[6]; Test C, 125 g ai/ha
  Oat, Wild plant response rating: 50
[7]; 500 g ai/ha
  Pigweed, Palmer plant response rating: 100
[7]; Test C, 125 g ai/ha
  Pigweed, Palmer plant response rating: 100
[8]; [29]
  Plant response rating, Foxtail, Green: 70
[8]; [30]
  Plant response rating, Foxtail, Green: 90
[9]; [29]
  Plant response rating, Blackgrass: 80
[9]; [30]
  Plant response rating, Blackgrass: 90
[10]; [29]
  Plant response rating, Pigweed, Palmer: 80
[11]; [29]
  Plant response rating, Horseweed: 60
[11]; [30]
  Plant response rating, Horseweed: 90
[12]; [29]
  Plant response rating, Oat, Wild: 60
[13]
  Plant response rating, Sedge, Umbrella (Flood): 95
[14]; 500 g ai/ha
  Soybean plant response rating: 100
[14]; Test C, 125 g ai/ha
  Soybean plant response rating: 80
[15]
  Plant response rating, Ducksalad (Flood): 85
[16]
  Plant response rating, Rice (Flood): 10
[17]; [29]
  Plant response rating, Galium: 100
[17]; [30]
  Plant response rating, Galium: 100
[18]
  Plant response rating, Barnyardgrass (Flood): 35
[19]; [29]
  Plant response rating, Corn: 10
[19]; [30]
  Plant response rating, Corn: 90
[20]; [29]
  Plant response rating, Ragweed: 80
[21]
  Plant response rating, Blackgrass: 90
  Blackgrass plant response rating: 50
[22]; [29]
  Plant response rating, Soybean: 100
[23]; 500 g ai/ha
  Kochia plant response rating: 100
[23]; Test C, 125 g ai/ha
  Kochia plant response rating: 80
[24]; [29]
  Plant response rating, Wheat: 40
[25]; 500 g ai/ha
  Ryegrass, Italian plant response rating: 100
[25]; Test C, 125 g ai/ha
  Ryegrass, Italian plant response rating: 80
[26]; [29]
  Plant response rating, Ryegrass, Italian: 90
[27]; 500 g ai/ha
  Ragweed plant response rating: 80
[27]; Test C, 125 g ai/ha
  Ragweed plant response rating: 60
[28]
  Plant response rating, Barnyardgrass: 100
  Barnyardgrass plant response rating: 100

## CCc1ncn(-c2ccc(C)c(C(=O)N3C[C@H](COC)Oc4c(Cl)cccc43)c2)n1 [Compound 265]
[1]; [31]
  Plant response rating, Wheat: 80
[1]; Test C, 125 g ai/ha
  Wheat plant response rating: 70
[2]; [29]
  Plant response rating, Kochia: 90
[2]; [30]
  Plant response rating, Kochia: 100
[3]; [31]
  Plant response rating, Corn: 90
[3]; Test C, 125 g ai/ha
  Corn plant response rating: 30
[4]; [31]
  Plant response rating, Foxtail, Green: 100
[4]; Test C, 125 g ai/ha
  Foxtail, Green plant response rating: 100
[5]; [29]
  Plant response rating, Barnyardgrass: 70
[5]; [30]
  Plant response rating, Barnyardgrass: 100
[6]; [31]
  Plant response rating, Oat, Wild: 90
[6]; Test C, 125 g ai/ha
  Oat, Wild plant response rating: 60
[7]; [31]
  Plant response rating, Pigweed, Palmer: 100
[7]; Test C, 125 g ai/ha
  Pigweed, Palmer plant response rating: 100
[8]; [29]
  Plant response rating, Foxtail, Green: 90
[8]; [30]
  Plant response rating, Foxtail, Green: 90
[9]; [29]
  Plant response rating, Blackgrass: 90
[9]; [30]
  Plant response rating, Blackgrass: 90
[10]; [29]
  Plant response rating, Pigweed, Palmer: 70
[10]; [30]
  Plant response rating, Pigweed, Palmer: 100
[11]; [29]
  Plant response rating, Horseweed: 40
[11]; [30]
  Plant response rating, Horseweed: 60
[12]; [29]
  Plant response rating, Oat, Wild: 30
[12]; [30]
  Plant response rating, Oat, Wild: 80
[13]
  Plant response rating, Sedge, Umbrella (Flood): 90
[14]; [31]
  Plant response rating, Soybean: 90
[14]; Test C, 125 g ai/ha
  Soybean plant response rating: 70
[15]
  Plant response rating, Ducksalad (Flood): 75
[16]
  Plant response rating, Rice (Flood): 25
[17]; [29]
  Plant response rating, Galium: 100
[17]; [30]
  Plant response rating, Galium: 100
[18]
  Plant response rating, Barnyardgrass (Flood): 30
[19]; [29]
  Plant response rating, Corn: 60
[19]; [30]
  Plant response rating, Corn: 70
[20]; [29]
  Plant response rating, Ragweed: 80
[20]; [30]
  Plant response rating, Ragweed: 90
[21]
  Plant response rating, Blackgrass: 90
  Blackgrass plant response rating: 70
[22]; [29]
  Plant response rating, Soybean: 100
[22]; [30]
  Plant response rating, Soybean: 100
[23]; [31]
  Plant response rating, Kochia: 90
[23]; Test C, 125 g ai/ha
  Kochia plant response rating: 80
[24]; [29]
  Plant response rating, Wheat: 40
[24]; [30]
  Plant response rating, Wheat: 70
[25]; [31]
  Plant response rating, Ryegrass, Italian: 90
[25]; Test C, 125 g ai/ha
  Ryegrass, Italian plant response rating: 80
[26]; [29]
  Plant response rating, Ryegrass, Italian: 80
[26]; [30]
  Plant response rating, Ryegrass, Italian: 90
[27]; [31]
  Plant response rating, Ragweed: 70
[27]; Test C, 125 g ai/ha
  Ragweed plant response rating: 50
[28]
  Plant response rating, Barnyardgrass: 90
  Barnyardgrass plant response rating: 90
